Experimental data from patent US7884116B2, “Octahydronaphthalene derivative and medicine” (Nippon Shinyaku Co., Ltd., priority 2003, dated 2011).

Tested on: ICAM-1 expressed on HUVEC
Test: Test about suppression of ICAM-1 expression (enzyme immuno assay, EIA), TNF-α-stimulated HUVEC
Format: cell-based
Settings: Homo sapiens, TNF-α 0.3 ng/ml
Method: Using a culture broth containing serum for vascular endothelial cell (manufactured by Nissui Pharmaceutical Co., Ltd.) as a culture medium, HUVEC (umbilical vein endothelial cell manufactured by Morinaga Bioscience Institute) was cultured in a collagen-treated flask by the routine method.
For carrying out a test about the suppression of ICAM-1 expression with HUVEC, a collagen-treated 96-well plate was used, where HUVEC was added at 1 to 2×10^4 cells/well while the culture medium was added at 100 to 200 μl/well. The cell was cultured in 5% CO2 at 37° C. for 48 to 72 hours. Before adding a test solution, the culture medium (80 μl) was exchanged, to which 10 μl of a test solution preliminarily diluted was then added. The plate was allowed to stand alone in a CO2 incubator. 2 hours later, 10 μl of TNF-α (recombinant human TNF-α, manufactured by Genzyme) was added (to a final concentration of 0.3 ng/ml). The resulting plate was again allowed to stand alone in the CO2 incubator. 16 to 22 hours later, the cell was fixed with 1% p-formaldehyde solution. The cell was rinsed with a phosphate buffer containing Ca^2+ and Mg^2+, which was then treated with an anti-human ICAM-1 antibody (mouse IgG1, manufactured by Kyowa Medics) at ambient temperature for 30 minutes. After the cell was rinsed again with the phosphate buffer, the cell was treated with a peroxide-labeled anti-mouse IgG (H+L) (manufactured by Organon Teknik Corp.) for another 30 minutes. After the cell was again rinsed with the phosphate buffer, the color developed was measured, using a peroxidase chromogenic kit (manufactured by Sumitomo Bakelite Co., Ltd.), to determine ICAM-1 expressed on HUVEC as an expression-inhibiting ratio (%) to a non-drug group to calculate the IC50 value.

Row | SMILES | IC50 [µM]
1 | C/C(=C\C=C\[C@@H]1[C@H]2[C@H](C)[C@@H](O)[C@H](C)C[C@@H]2C=C[C@@H]1C)CO [Example 3, (2E,4E)-5-[(1S,2S,4aR,6R,7S,8S,8aS)-7-Hydroxy-2,6,8-trimethyl-1,2,4a,5,6,7,8,8a-octahydronaphthalen-1-yl]-2-methylpenta-2,4-dien-1-ol] | 9.9
2 | C/C(=C\C=C\[C@@H]1[C@H]2[C@H](C)[C@@H](O)[C@H](C)C[C@@H]2C=C[C@@H]1C)C(=O)NCc1ccccn1 [Example 7, N-(Pyridin-2-ylmethyl)-(2E,4E)-5-[(1S,2S,4aR,6R,7S,8S,8aS)-7-hydroxy-2,6,8-trimethyl-1,2,4a,5,6,7,8,8a-octahydronaphthalen-1-yl]-2-methylpenta-2,4-dienamide] | 2
3 | C/C(=C\C=C\[C@@H]1[C@H]2[C@H](C)[C@@H](O)[C@H](C)C[C@@H]2C=C[C@@H]1C)C(=O)NCc1ccccc1 [Example 8, N-Benzyl-(2E,4E)-5-[(1S,2S,4aR,6R,7S,8S,8aS)-7-hydroxy-2,6,8-trimethyl-1,2,4a,5,6,7,8,8a-octahydronaphthalen-1-yl]-2-methylpenta-2,4-dienamide] | 0.47
4 | COc1cccc(CNC(=O)/C(C)=C/C=C/[C@@H]2[C@H]3[C@H](C)[C@@H](O)[C@H](C)C[C@@H]3C=C[C@@H]2C)c1 [Example 9, N-(3-Methoxybenzyl)-(2E,4E)-5-[(1S,2S,4aR,6R,7S,8S,8aS)-7-hydroxy-2,6,8-trimethyl-1,2,4a,5,6,7,8,8a-octahydronaphthalen-1-yl]-2-methylpenta-2,4-dienamide] | 2.1
5 | C/C(=C\C=C\[C@@H]1[C@H]2[C@H](C)[C@@H](O)[C@H](C)C[C@@H]2C=C[C@@H]1C)C(=O)NCc1ccc(Cl)cc1 [Example 10, N-(4-Chlorobenzyl)-(2E,4E)-5-[(1S,2S,4aR,6R,7S,8S,8aS)-7-hydroxy-2,6,8-trimethyl-1,2,4a,5,6,7,8,8a-octahydronaphthalen-1-yl]-2-methylpenta-2,4-dienamide] | 140
6 | C/C(=C\C=C\[C@@H]1[C@H]2[C@H](C)[C@@H](O)[C@H](C)C[C@@H]2C=C[C@@H]1C)C(=O)NCc1ccc(C)cc1 [Example 11, N-(4-Methylbenzyl)-(2E,4E)-5-[(1S,2S,4aR,6R,7S,8S,8aS)-7-hydroxy-2,6,8-trimethyl-1,2,4a,5,6,7,8,8a-octahydronaphthalen-1-yl]-2-methylpenta-2,4-dienamide] | 160
7 | C/C(=C\C=C\[C@@H]1[C@H]2[C@H](C)[C@@H](O)[C@H](C)C[C@@H]2C=C[C@@H]1C)C(=O)NCCc1ccncc1 [Example 13, N-(Pyridin-4-ylethyl)-(2E,4E)-5-[(1S,2S,4aR,6R,7S,8S,8aS)-7-hydroxy-2,6,8-trimethyl-1,2,4a,5,6,7,8,8a-octahydronaphthalen-1-yl]-2-methylpenta-2,4-dienamide] | 5.7
8 | C/C(=C\C=C\[C@@H]1[C@H]2[C@H](C)[C@@H](O)[C@H](C)C[C@@H]2C=C[C@@H]1C)C(=O)NCCc1ccc(O)cc1 [Example 14, N-(4-Hydroxyphenethyl)-(2E,4E)-5-[(1S,2S,4aR,6R,7S,8S,8aS)-7-hydroxy-2,6,8-trimethyl-1,2,4a,5,6,7,8,8a-octahydronaphthalen-1-yl]-2-methylpenta-2,4-dienamide] | 15
9 | C/C(=C\C=C\[C@@H]1[C@H]2[C@H](C)[C@@H](O)[C@H](C)C[C@@H]2C=C[C@@H]1C)C(=O)Nc1ccccc1 [Example 16, N-Phenyl-(2E,4E)-5-[(1S,2S,4aR,6R,7S,8S,8aS)-7-hydroxy-2,6,8-trimethyl-1,2,4a,5,6,7,8,8a-octahydronaphthalen-1-yl]-2-methylpenta-2,4-dienamide] | 15
10 | CNC(=O)/C(C)=C/C=C/[C@@H]1[C@H]2[C@H](C)[C@@H](O)[C@H](C)C[C@@H]2C=C[C@@H]1C [Example 17, N-Methyl-(2E,4E)-5-[(1S,2S,4aR,6R,7S,8S,8aS)-7-hydroxy-2,6,8-trimethyl-1,2,4a,5,6,7,8,8a-octahydronaphthalen-1-yl]-2-methylpenta-2,4-dienamide] | 2.6
